Test system: MV-4-11 cells
Assay: Gene expression microarray analysis (Affymetrix PrimeView) and GSEA
Assay type: cell-based, human
Set-up: RFU PODN (11730768_x_at) / Fold change /veh PODN (11730768_x_at) / RFU LINC00158 (11744669_a_at) / Fold change /veh LINC00158 (11744669_a_at) / RFU DUSP10 (11751237_a_at) / Fold change /veh DUSP10 (11751237_a_at) / RFU ID3 (11757404_x_at) / Fold change /veh ID3 (11757404_x_at) / RFU PLEKHG5 (11737974_s_at) / Fold change /veh PLEKHG5 (11737974_s_at) / RFU LRRC4B (11730491_at) / Fold change /veh LRRC4B (11730491_at) / RFU GIMAP4 (11747438_a_at) / Fold change /veh GIMAP4 (11747438_a_at) / RFU KRT8 (11758183_x_at) / Fold change /veh KRT8 (11758183_x_at) / RFU CNN1 (11734310_a_at) / Fold change /veh CNN1 (11734310_a_at) / RFU VPS37D (11726825_at) / Fold change /veh VPS37D (11726825_at) / RFU C10orf10 (11716522_x_at) / Fold change /veh C10orf10 (11716522_x_at) / RFU KIR2DL2 /// KIR2DL4 /// KIR2DL5A /// KIR2DL5B /// KIR2DS1 /// KIR2DS2 /// KIR2DS3 /// KIR2DS4 /// KIR3DL3 /// KIR3DL3 /// KIR3DS1 (11738374_at) / Fold change /veh KIR2DL2 /// KIR2DL4 /// KIR2DL5A /// KIR2DL5B /// KIR2DS1 /// KIR2DS2 /// KIR2DS3 /// KIR2DS4 /// KIR3DL3 /// KIR3DL3 /// KIR3DS1 (11738374_at) / RFU C1QL1 (11718748_at) / Fold change /veh C1QL1 (11718748_at) / RFU TMPRSS4 (11747572_a_at) / Fold change /veh TMPRSS4 (11747572_a_at) / RFU HAMP (11756126_x_at) / Fold change /veh HAMP (11756126_x_at) / RFU RNFT2 (11725882_a_at) / Fold change /veh RNFT2 (11725882_a_at) / RFU NR4A2 (11747474_a_at) / Fold change /veh NR4A2 (11747474_a_at) / RFU ABCC12 (11746883_a_at) / Fold change /veh ABCC12 (11746883_a_at) / RFU TMEM136 (11760407_x_at) / Fold change /veh TMEM136 (11760407_x_at) / RFU CLDN22 /// WWC2 (11732394_at) / Fold change /veh CLDN22 /// WWC2 (11732394_at) / RFU HLA-DPB1 (11760878_x_at) / Fold change /veh HLA-DPB1 (11760878_x_at) / RFU SPINT1 (11716480_a_at) / Fold change /veh SPINT1 (11716480_a_at) / RFU GAP43 (11754022_s_at) / Fold change /veh GAP43 (11754022_s_at) / RFU A4GNT (11735810_at) / Fold change /veh A4GNT (11735810_at) / RFU PRB3 (11715151_x_at) / Fold change /veh PRB3 (11715151_x_at) / RFU TUBB4B (11761932_at) / Fold change /veh TUBB4B (11761932_at) / RFU CAPN14 (11732068_a_at) / Fold change /veh CAPN14 (11732068_a_at) / RFU TMCC2 (11721928_a_at) / Fold change /veh TMCC2 (11721928_a_at) / RFU IRGQ (11745062_a_at) / Fold change /veh IRGQ (11745062_a_at) / RFU FAM174B (11720279_a_at) / Fold change /veh FAM174B (11720279_a_at) / RFU TMPRSS4 (11748680_a_at) / Fold change /veh TMPRSS4 (11748680_a_at) / RFU FAM212B (11763350_a_at) / Fold change /veh FAM212B (11763350_a_at) / RFU PLEKHG5 (11743358_a_at) / Fold change /veh PLEKHG5 (11743358_a_at) / RFU ZSCAN30 (11745921_a_at) / Fold change /veh ZSCAN30 (11745921_a_at) / RFU CMKLR1 (11741424_a_at) / Fold change /veh CMKLR1 (11741424_a_at) / RFU LOC101060620 /// MAPK8IP1 (11723275_at) / Fold change /veh LOC101060620 /// MAPK8IP1 (11723275_at) / RFU SPTSSB (11747773_x_at) / Fold change /veh SPTSSB (11747773_x_at) / RFU PRSS12 (11739890_at) / Fold change /veh PRSS12 (11739890_at) / RFU BIN1 (11741810_x_at) / Fold change /veh BIN1 (11741810_x_at) / RFU WNT11 (11732464_a_at) / Fold change /veh WNT11 (11732464_a_at) / RFU C10orf10 (11716521_a_at) / Fold change /veh C10orf10 (11716521_a_at) / RFU C5orf56 (11738089_at) / Fold change /veh C5orf56 (11738089_at) / RFU CYB561 (11721691_x_at) / Fold change /veh CYB561 (11721691_x_at) / RFU ANKRD19P (11752326_a_at) / Fold change /veh ANKRD19P (11752326_a_at) / RFU OR2T12 /// OR2T33 /// OR2T8 (11738714_s_at) / Fold change /veh OR2T12 /// OR2T33 /// OR2T8 (11738714_s_at) / RFU VCAN (11748164_a_at) / Fold change /veh VCAN (11748164_a_at) / RFU JSRP1 (11732532_at) / Fold change /veh JSRP1 (11732532_at) / RFU KRTAP10-11 (11738290_x_at) / Fold change /veh KRTAP10-11 (11738290_x_at) / RFU MYO3A (11730013_a_at) / Fold change /veh MYO3A (11730013_a_at) / RFU EBF3 (11725865_a_at) / Fold change /veh EBF3 (11725865_a_at) / RFU CAMK2N1 (11719241_x_at) / Fold change /veh CAMK2N1 (11719241_x_at) / RFU C5orf56 (11738088_a_at) / Fold change /veh C5orf56 (11738088_a_at) / RFU OLFML3 (11715873_a_at) / Fold change /veh OLFML3 (11715873_a_at) / RFU LOC100653217 /// NTM (11731650_a_at) / Fold change /veh LOC100653217 /// NTM (11731650_a_at) / RFU MAPK11 (11762145_a_at) / Fold change /veh MAPK11 (11762145_a_at) / RFU FIZ1 (11724087_x_at) / Fold change /veh FIZ1 (11724087_x_at) / RFU OASL (11726364_x_at) / Fold change /veh OASL (11726364_x_at) / RFU SOX15 (11748057_x_at) / Fold change /veh SOX15 (11748057_x_at) / RFU CD79A (11719716_a_at) / Fold change /veh CD79A (11719716_a_at) / RFU HIST1H1D (11736915_at) / Fold change /veh HIST1H1D (11736915_at) / RFU CASKIN2 (11723855_a_at) / Fold change /veh CASKIN2 (11723855_a_at) / RFU LOC730098 (11760151_x_at) / Fold change /veh LOC730098 (11760151_x_at) / RFU OR4N2 (11742367_at) / Fold change /veh OR4N2 (11742367_at) / RFU PRRT2 (11749266_a_at) / Fold change /veh PRRT2 (11749266_a_at) / RFU SNX32 (11753110_a_at) / Fold change /veh SNX32 (11753110_a_at) / RFU CDHR5 (11726645_a_at) / Fold change /veh CDHR5 (11726645_a_at) / RFU RCAN1 (11760418_a_at) / Fold change /veh RCAN1 (11760418_a_at) / RFU FAM167A (11723789_a_at) / Fold change /veh FAM167A (11723789_a_at) / RFU FAM26E (11764081_at) / Fold change /veh FAM26E (11764081_at) / RFU ISYNA1 (11749810_s_at) / Fold change /veh ISYNA1 (11749810_s_at) / RFU ACY1 (11761880_at) / Fold change /veh ACY1 (11761880_at) / RFU 11764098_at / Fold change /veh 11764098_at / RFU SAMD14 (11745864_x_at) / Fold change /veh SAMD14 (11745864_x_at) / RFU NPB (11741838_a_at) / Fold change /veh NPB (11741838_a_at) / RFU TMPRSS6 (11731388_a_at) / Fold change /veh TMPRSS6 (11731388_a_at) / RFU KRTAP10-2 (11738614_at) / Fold change /veh KRTAP10-2 (11738614_at) / RFU ARHGAP8 /// PRR5-ARHGAP8 (11727945_x_at) / Fold change /veh ARHGAP8 /// PRR5-ARHGAP8 (11727945_x_at) / RFU KRTAP5-7 /// NADSYN1 (11734609_at) / Fold change /veh KRTAP5-7 /// NADSYN1 (11734609_at) / RFU RASL12 (11751679_a_at) / Fold change /veh RASL12 (11751679_a_at) / RFU CDKN2B (11736163_a_at) / Fold change /veh CDKN2B (11736163_a_at) / RFU PRF1 (11729649_at) / Fold change /veh PRF1 (11729649_at) / RFU, ZNF638 /// ZNF638-IT1 / Fold change vs veh, ZNF638 /// ZNF638-IT1 / RFU, PANK3 / Fold change vs veh, PANK3 / RFU, SH3YL1 / Fold change vs veh, SH3YL1 / RFU, ZEB2 / Fold change vs veh, ZEB2 / RFU, NRIP1 / Fold change vs veh, NRIP1 / RFU, PTTG1IP / Fold change vs veh, PTTG1IP / RFU, CAPN2 / Fold change vs veh, CAPN2 / RFU, MED14 / Fold change vs veh, MED14 / RFU, SNORA58 / Fold change vs veh, SNORA58 / RFU, C1orf63 / Fold change vs veh, C1orf63 / RFU, LRRFIP1 / Fold change vs veh, LRRFIP1 / RFU, NDUFAF7 / Fold change vs veh, NDUFAF7 / RFU, SLC12A2 / Fold change vs veh, SLC12A2 / RFU, IBTK / Fold change vs veh, IBTK / RFU, ESF1 / Fold change vs veh, ESF1 / Fold change vs veh, TMEM50B / RFU, TAOK1 / Fold change vs veh, TAOK1 / RFU, ACBD3 / Fold change vs veh, ACBD3 / RFU, TMA16 / Fold change vs veh, TMA16 / RFU, RWDD3 / Fold change vs veh, RWDD3 / RFU, BCAT1 / Fold change vs veh, BCAT1 / RFU, EDEM3 / Fold change vs veh, EDEM3 / RFU, TMEM33 / Fold change vs veh, TMEM33 / RFU, WDR75 / Fold change vs veh, WDR75 / RFU, AHCTF1 / Fold change vs veh, AHCTF1 / RFU, TFRC / Fold change vs veh, TFRC / RFU, ZDHHC17 / Fold change vs veh, ZDHHC17 / RFU, NOM1 / Fold change vs veh, NOM1 / RFU, ARL8B / Fold change vs veh, ARL8B / RFU, ZBTB11 / Fold change vs veh, ZBTB11 / RFU, TAMM41 / Fold change vs veh, TAMM41 / RFU, KIAA1704 /// LOC100996395 / Fold change vs veh, KIAA1704 /// LOC100996395 / RFU, ING1 / Fold change vs veh, ING1 / RFU, TRMT61B / Fold change vs veh, TRMT61B / RFU, FUBP3 / Fold change vs veh, FUBP3 / RFU, TP53 / Fold change vs veh, TP53 / RFU, TNKS2 / Fold change vs veh, TNKS2 / RFU, ZFP14 / Fold change vs veh, ZFP14 / RFU, ACTR2 / Fold change vs veh, ACTR2 / RFU, PPP3R1 / Fold change vs veh, PPP3R1 / RFU, PIK3R1 / Fold change vs veh, PIK3R1 / RFU, HNRNPA1 / Fold change vs veh, HNRNPA1 / RFU, RNF170 / Fold change vs veh, RNF170 / RFU, ZNF28 / Fold change vs veh, ZNF28 / RFU, RNGTT / Fold change vs veh, RNGTT / RFU, OGT / Fold change vs veh, OGT / RFU, BRD1 / Fold change vs veh, BRD1 / RFU, MARS / Fold change vs veh, MARS / RFU, ZNF655 / Fold change vs veh, ZNF655 / RFU, FAHD1 / Fold change vs veh, FAHD1 / RFU, BDP1 / Fold change vs veh, BDP1 / RFU, LRRCC1 / Fold change vs veh, LRRCC1 / RFU, ARID1A / Fold change vs veh, ARID1A / RFU, ZNF146 / Fold change vs veh, ZNF146 / RFU, ZNF330 / Fold change vs veh, ZNF330 / RFU, GPN3 / Fold change vs veh, GPN3 / RFU, C9orf123 / Fold change vs veh, C9orf123 / RFU, N4BP2L2 / Fold change vs veh, N4BP2L2 / RFU, ARFIP1 / Fold change vs veh, ARFIP1 / RFU, FAM179B / Fold change vs veh, FAM179B / RFU, BCL10 / Fold change vs veh, BCL10 / RFU, UHRF1BP1L / Fold change vs veh, UHRF1BP1L / RFU, BET1 / Fold change vs veh, BET1 / RFU, CNOT2 / Fold change vs veh, CNOT2 / RFU, ZNF268 / Fold change vs veh, ZNF268 / Fold change vs veh, ZNF507 / RFU, DGCR2 / Fold change vs veh, DGCR2 / RFU, WDSUB1 / Fold change vs veh, WDSUB1 / Fold change vs veh, HSP90B1 /// MIR3652 / RFU, ADSS / Fold change vs veh, ADSS / RFU, GK / Fold change vs veh, GK / RFU, ZNF148 / Fold change vs veh, ZNF148 / RFU, TAF9 / Fold change vs veh, TAF9 / RFU, SLC1A5 / Fold change vs veh, SLC1A5 / RFU, SLMO2 / Fold change vs veh, SLMO2 / RFU, ABCC4 / Fold change vs veh, ABCC4 / RFU, LOC101060439 /// RAP1B / Fold change vs veh, LOC101060439 /// RAP1B / RFU, RFX7 / Fold change vs veh, RFX7 / RFU, GTPBP10 / Fold change vs veh, GTPBP10 / RFU, CNEP1R1 / Fold change vs veh, CNEP1R1 / RFU, BIVM-ERCC5 /// ERCC5 / Fold change vs veh, BIVM-ERCC5 /// ERCC5 / RFU, ILF3 / Fold change vs veh, ILF3 / RFU 11762660_at / Fold change /veh 11762660_at / RFU VCAN (11757783_s_at) / Fold change /veh VCAN (11757783_s_at) / RFU DDX43 (11728927_at) / Fold change /veh DDX43 (11728927_at) / RFU KRT8 (11758188_x_at) / Fold change /veh KRT8 (11758188_x_at) / RFU NKD1 (11759106_at) / Fold change /veh NKD1 (11759106_at) / RFU SRD5A1 (11742802_a_at) / Fold change /veh SRD5A1 (11742802_a_at) / RFU TPSAB1 /// TPSB2 (11721975_s_at) / Fold change /veh TPSAB1 /// TPSB2 (11721975_s_at) / RFU GSTM3 (11746129_a_at) / Fold change /veh GSTM3 (11746129_a_at) / RFU IL23R (11737362_x_at) / Fold change /veh IL23R (11737362_x_at) / RFU TMEM51 (11727254_a_at) / Fold change /veh TMEM51 (11727254_a_at) / RFU PIWIL2 (11732686_x_at) / Fold change /veh PIWIL2 (11732686_x_at) / RFU ORM1 (11744905_x_at) / Fold change /veh ORM1 (11744905_x_at) / RFU CCDC152 (11743942_at) / Fold change /veh CCDC152 (11743942_at) / RFU ECM1 (11717891_a_at) / Fold change /veh ECM1 (11717891_a_at) / RFU IL23R (11748794_a_at) / Fold change /veh IL23R (11748794_a_at) / RFU TNFAIP8L3 (11732012_x_at) / Fold change /veh TNFAIP8L3 (11732012_x_at) / RFU MBOAT4 (11741988_at) / Fold change /veh MBOAT4 (11741988_at) / RFU 11764193_at / Fold change /veh 11764193_at / RFU TMEM53 (11763286_at) / Fold change /veh TMEM53 (11763286_at) / RFU MAGEB2 (11727129_at) / Fold change /veh MAGEB2 (11727129_at) / RFU TMEM200A (11744735_a_at) / Fold change /veh TMEM200A (11744735_a_at) / RFU CCDC152 (11751479_a_at) / Fold change /veh CCDC152 (11751479_a_at) / RFU FAM211A (11726209_a_at) / Fold change /veh FAM211A (11726209_a_at) / RFU RGS16 (11746705_a_at) / Fold change /veh RGS16 (11746705_a_at) / RFU VCAN (11755009_s_at) / Fold change /veh VCAN (11755009_s_at) / RFU RHOB (11743442_s_at) / Fold change /veh RHOB (11743442_s_at) / RFU RGS16 (11720943_a_at) / Fold change /veh RGS16 (11720943_a_at) / RFU RGS16 (11720944_at) / Fold change /veh RGS16 (11720944_at) / RFU, VPS4B / Fold change vs veh, VPS4B / RFU, CREB1 / Fold change vs veh, CREB1 / RFU, DNAJC13 / Fold change vs veh, DNAJC13 / RFU, GNAQ / Fold change vs veh, GNAQ / RFU, CDK5R1 / Fold change vs veh, CDK5R1 / RFU, ZRANB3 / Fold change vs veh, ZRANB3 / RFU, CUL4A / Fold change vs veh, CUL4A / RFU, CCNY / Fold change vs veh, CCNY / RFU, UFL1 / Fold change vs veh, UFL1 / RFU, COG3 / Fold change vs veh, COG3 / RFU, DIAPH2 / Fold change vs veh, DIAPH2 / RFU, SKA2 / Fold change vs veh, SKA2 / RFU, AFF3 / Fold change vs veh, AFF3 / RFU, LMF1 / Fold change vs veh, LMF1 / RFU, IPO11 / Fold change vs veh, IPO11 / RFU, DFFB / Fold change vs veh, DFFB / RFU, FOXP1 / Fold change vs veh, FOXP1 / RFU, CARD8 / Fold change vs veh, CARD8 / RFU, STRN3 / Fold change vs veh, STRN3 / RFU, ADK / Fold change vs veh, ADK / RFU, RASSF2 / Fold change vs veh, RASSF2 / RFU, WIPF1 / Fold change vs veh, WIPF1 / RFU, LARP1B / Fold change vs veh, LARP1B / RFU, RASA1 / Fold change vs veh, RASA1 / RFU, RB1 / Fold change vs veh, RB1 / RFU, PPFIA1 / Fold change vs veh, PPFIA1 / RFU, MAT2A / Fold change vs veh, MAT2A / RFU, CCT5 / Fold change vs veh, CCT5 / RFU, WDR92 / Fold change vs veh, WDR92 / RFU, CUX1 / Fold change vs veh, CUX1 / RFU, TTC7A / Fold change vs veh, TTC7A / RFU, TMEM135 / Fold change vs veh, TMEM135 / RFU, DEPTOR / Fold change vs veh, DEPTOR / RFU, CPM / Fold change vs veh, CPM / RFU, DNAJB6 / Fold change vs veh, DNAJB6 / RFU, CACNA2D3 / Fold change vs veh, CACNA2D3 / RFU, DTX4 / Fold change vs veh, DTX4 / RFU, TFCP2 / Fold change vs veh, TFCP2 / RFU, GMCL1 /// GMCL1P1 / Fold change vs veh, GMCL1 /// GMCL1P1 / RFU, AEBP2 / Fold change vs veh, AEBP2 / RFU, SNHG1 /// SNORD22 /// SNORD25 /// SNORD26 /// SNORD27 /// SNORD28 /// SNORD29 /// SNORD31 / Fold change vs veh, SNHG1 /// SNORD22 /// SNORD25 /// SNORD26 /// SNORD27 /// SNORD28 /// SNORD29 /// SNORD31 / Fold change (Aza/veh), C12orf56 (ProbeSet 11735607_a_at) / Fold change (ACY-1035/veh), C12orf56 (ProbeSet 11735607_a_at) / Fold change (Aza/veh), FGFR1OP (ProbeSet 11751329_s_at) / Fold change (ACY-1035/veh), FGFR1OP (ProbeSet 11751329_s_at) / Fold change (Aza/veh), VPS36 (ProbeSet 11739960_a_at) / Fold change (ACY-1035/veh), VPS36 (ProbeSet 11739960_a_at) / RFU SYPL1 (11715823_x_at) / Fold change /veh SYPL1 (11715823_x_at) / RFU IGFBP7 (11715501_s_at) / Fold change /veh IGFBP7 (11715501_s_at) / RFU REEP3 (11722064_at) / Fold change /veh REEP3 (11722064_at) / RFU IGLL1 (11728026_x_at) / Fold change /veh IGLL1 (11728026_x_at): dose or concentration left out as unconfirmed
Details: MV-4-11 cells, 48 hours

For `Nc1ccc(-c2cccs2)cc1NC(=O)c1ccc2c(c1)cc(C1CC1)n2CCN1CCOCC1` [ACY-1035], the “Fold change /veh C1QL1 (11718748_at)” value was 0.88.

— publication PMC5218480 (PLoS ONE, 2017)
